These compounds were tested on MCF-7 (human breast adenocarcinoma) (assay: MTT cytotoxicity assay, MCF-7). Conditions: Homo sapiens, MCF7, 72 h, read-out: IC50 ± SD, MCF7.
Type: cell-based

Q: Which IC50 does the source give for `Cc1nc([N+](=O)[O-])c(N2CCN(Cc3cn(Cc4ccccc4[N+](=O)[O-])nn3)CC2)n1Cc1ccccc1` [Compound 9h, 1-(N1-benzyl-2-methyl-4-nitro-imidazole-5-yl)-4-((N1-(2-nitrobenzyl)-1H-1,2,3-triazol-4-yl)methyl)piperazine] here?
A: The IC50 was 48 ± 4 µM.

Q: Which IC50 does the source give for `CCc1ccccc1-n1cc(CN2CCN(c3c([N+](=O)[O-])nc(C)n3Cc3ccccc3)CC2)nn1` [Compound 11h, 1-(N1-benzyl-2-methyl-4-nitro-1H-imidazole-5-yl)-4-((N1-(2-ethylphenyl)-1H-1,2,3-triazol-4-yl)methyl)piperazine] here?
A: Its IC50 is 88 ± 37 µM.

Q: Which IC50 does the source give for `COc1cccc(-n2cc(CN3CCN(c4c([N+](=O)[O-])nc(C)n4Cc4ccccc4)CC3)nn2)c1` [Compound 11l, 1-(N1-benzyl-2-methyl-4-nitro-1H-imidazole-5-yl)-4-((N1-(3-methoxyphenyl)-1H-1,2,3-triazol-4-yl)methyl)piperazine] here?
A: The IC50 was 198 ± 10 µM.

Q: `Cc1nc([N+](=O)[O-])cn1Cc1ccccc1` [Compound 2, N1-benzyl-2-methyl-4-nitroimidazole] was tested. Which IC50 did it give?
A: Its IC50 is 68 ± 20 µM.

Q: Which IC50 does the source give for `CCOc1ccccc1-n1cc(CN2CCN(c3c([N+](=O)[O-])nc(C)n3Cc3ccccc3)CC2)nn1` [Compound 11c, 1-(N1-benzyl-2-methyl-4-nitro-1H-imidazole-5-yl)-4-((N1-(2-ethoxyphenyl)-1H-1,2,3-triazol-4-yl)methyl)piperazine] here?
A: Its IC50 is 399 ± 79 µM.

Q: With `Cc1ccccc1-n1cc(CN2CCN(c3c([N+](=O)[O-])nc(C)n3Cc3ccccc3)CC2)nn1` [Compound 11g, 1-(N1-benzyl-2-methyl-4-nitro-1H-imidazole-5-yl)-4-((N1-(o-tolyl)-1H-1,2,3-triazol-4-yl)methyl)piperazine] as the compound, how does the IC50 read?
A: The IC50 was 183 ± 10 µM.

Q: With `Cc1nc([N+](=O)[O-])c(N2CCN(Cc3cn(-c4cccc5ccccc45)nn3)CC2)n1Cc1ccccc1` [Compound 11q, 1-(N1-benzyl-2-methyl-4-nitro-1H-imidazole-5-yl)-4-((N1-(naphthalen-1-yl)-1H-1,2,3-triazol-4-yl)methyl)piperazine] as the compound, how does the IC50 read?
A: The IC50 was 270 ± 40 µM.

Q: How did the IC50 turn out when `Cc1nc([N+](=O)[O-])c(N2CCN(Cc3cn(-c4ccccc4)nn3)CC2)n1Cc1ccccc1` [Compound 11d, 1-(N1-benzyl-2-methyl-4-nitro-1H-imidazole-5-yl)-4-((N1-phenyl-1H-1,2,3-triazol-4-yl)methyl)piperazine] was run?
A: The IC50 was 312 ± 65 µM.

Q: For `Cc1ccc(-n2cc(CN3CCN(c4c([N+](=O)[O-])nc(C)n4Cc4ccccc4)CC3)nn2)cc1` [Compound 11e, 1-(N1-benzyl-2-methyl-4-nitro-1H-imidazole-5-yl)-4-((N1-(p-tolyl)-1H-1,2,3-triazol-4-yl)methyl)piperazine], which IC50 is on record?
A: The IC50 was 219 ± 12 µM.

Q: For `CSc1ccccc1-n1cc(CN2CCN(c3c([N+](=O)[O-])nc(C)n3Cc3ccccc3)CC2)nn1` [Compound 11b, 1-(N1-benzyl-2-methyl-4-nitro-1H-imidazole-5-yl)-4-((N1-(2-(methylthio)phenyl)-1H-1,2,3-triazol-4-yl)methyl)piperazine], which IC50 is on record?
A: Its IC50 is 136 ± 60 µM.

Q: Which IC50 does the source give for `Cc1nc([N+](=O)[O-])c(N2CCN(Cc3cn(-c4ccc([N+](=O)[O-])cc4)nn3)CC2)n1Cc1ccccc1` [Compound 11k, 1-(N1-benzyl-2-methyl-4-nitro-1H-imidazole-5-yl)-4-((N1-(4-nitrophenyl)-1H-1,2,3-triazol-4-yl)methyl)piperazine] here?
A: Its IC50 is 671 ± 140 µM.

Q: With `Cc1nc([N+](=O)[O-])c(N2CCN(Cc3cn(Cc4cccc([N+](=O)[O-])c4)nn3)CC2)n1Cc1ccccc1` [Compound 9d, 1-(N1-benzyl-2-methyl-4-nitro-imidazole-5-yl)-4-((N1-(3-nitrobenzyl)-1H-1,2,3-triazol-4-yl)methyl)piperazine] as the compound, how does the IC50 read?
A: The IC50 was 40 ± 15 µM.

Q: `Cc1nc([N+](=O)[O-])c(N2CCN(Cc3cn(Cc4cccc(Br)c4)nn3)CC2)n1Cc1ccccc1` [Compound 9f, 1-(N1-benzyl-2-methyl-4-nitro-imidazole-5-yl)-4-((N1-(3-bromobenzyl)-1H-1,2,3-triazol-4-yl)methyl)piperazine] was tested. Which IC50 did it give?
A: Its IC50 is 53 ± 60 µM.

The compounds below were run on normal human dermal/fibroblasts (assay: MTT cytotoxicity assay, normal fibroblasts). Conditions: Homo sapiens, Fibroblast, 72 h, read-out: IC50 ± SD, Fibro dental.
Type: cell-based

Q: How did the IC50 turn out when `Cc1nc([N+](=O)[O-])c(N2CCN(Cc3cn(Cc4ccccc4[N+](=O)[O-])nn3)CC2)n1Cc1ccccc1` [Compound 9h, 1-(N1-benzyl-2-methyl-4-nitro-imidazole-5-yl)-4-((N1-(2-nitrobenzyl)-1H-1,2,3-triazol-4-yl)methyl)piperazine] was run?
A: The IC50 was > 500 µM.

From article PMC10480608 (Heliyon, 2023)
